Measured values from patent US8748445B2, “Methods for treating glioma” (The UAB Research Foundation, priority 2004, dated 2014).
Entries after “also recorded” stand apart in the source; their conditions may differ.

Experiments:
glioma xenograft tumors = assay: tumor size by hematoxylin-eosin staining of brain sections; format: in vivo, mice; details: 8 mg in 1 ml saline twice per day; 30 days after tumor induction (FIGS. 7C, 7D)
Procedure: To validate that these experiments represent, at least qualitatively, changes in tumor size, two animals each from the control and treatment groups were sacrificed at 30 days after tumor induction. Histological sections were obtained and traditional hematoxylin-eosin (H&E) staining were performed. FIGS. 7C and 7D show the results for the control group (saline treatment only) and the treatment group (8 mg sulfasalazine in 1 ml saline, twice per day).

D54-MG glioma cells = assay: intracranial D54-MG luciferase xenograft, bioluminescence imaging; format: in vivo, CB-17 scid mice
Procedure: Therefore, the effect of inhibiting system Xc in an animal model of malignant glioma was examined. In these experiments, both (S)-4-CPG or sulfasalazine were used. […] In the described in vivo experiments, human gliomas were xenografted into the cranium of either female CB-17 scid mice or nude mice, both of which are frequently used animal models for malignant gliomas. The intracranial growth of tumors was assessed using the recently developed […] methodology for visualizing tumor growth.
In one set of in vivo experiments, D54-MG glioma cells were stably transfected with the firefly luciferase gene under the control of the CMV promoter. One-half million cells were stereotactically implanted into the cranium of each CB-17 scid mouse. After 7 days, animals were randomized into three groups of 12 animals each. The control group received an intraperitoneal injection of 1 ml dose of saline twice daily. The two test groups received an 8 mg dose of sulfasalazine twice daily for either 1 or 3 weeks. Animals were imaged for tumor size, typically once per week, using a bioluminescence imaging system (IVIS system; Xenogen). Light emission from the tumor regions (in relative photons/second) were quantified using Living Image, version 2.20.1, software provided by Xenogen and plotted as a function of time.

glioma cells [1] = assay: cell death by flow cytometry using the Live/Dead assay kit; format: cell-based, human; details: 1 mM, 5 d incubation (FIG. 5E)
Procedure: (§1) Because an accumulation of ROS can lead to apoptotic cell death, the ability of system Xc inhibitors to induce apoptosis in glioma cells was examined. […] Often apoptosis is dependent on caspase activities, so it was determined whether the system Xc inhibitors induce activated caspase-3, which is the convergent enzyme in the caspase-dependent signaling cascade. […] With 1 mM sulfasalazine, 90% of cells died over the 5 d incubation (FIG. 5E).

[2] = test system: cortical neuronal cultures; assay: survival of cortical neuronal cultures; format: cell-based; details: (S)-4-CPG 0.25 mM and 0.5 mM (FIG. 3C); sulfasalazine data not shown
caspase-3 = assay: activated caspase-3 by Western blot analysis; format: cell-based, human; details: 0.5 mM; D-54MG cells (FIG. 5C)
Procedure: as §1

cortical astrocytes [3] = assay: 35S-labeled cystine uptake in cortical astrocytes; format: cell-based; parameters: dose or concentration left out as unconfirmed; details: compared with D-54MG glioma cells (FIG. 2B)
Text: System Xc is a glutamate-cystine exchanger and can therefore be inhibited if the outward directed gradient for glutamate is eliminated by exposure to high concentrations of extracellular glutamate. The principal hypothesis in this study is that system Xc serves as a pipeline for cellular cystine uptake, with glutamate release being an obligatory by-product. Cystine uptake is the rate-limiting step for the synthesis of GSH, which is the main intracellular antioxidant that protects cells from oxidative stress and resulting reactive oxygen species (ROS) (Jefferies et al., 2003).

cortical astrocytes [4] = assay: intracellular glutathione in cortical astrocytes; format: cell-based; details: sulfasalazine 50-500 μM; compared to glioma cells (FIG. 2E)
Procedure: To determine if limiting cystine uptake via system Xc reduces the total intracellular glutathione content (GSH and glutathione disulfide), intracellular glutathione concentrations were determined in the presence and absence of sulfasalazine.

cultured glioma cells = assay: glutathione levels in cultured glioma cells (monochlorobimane assay); format: cell-based, human
Procedure: The control group and treatment group animals were those described in FIG. 7A above. For these experiments, four mice (two control and two treatment) were sacrificed at 44 days after tumor induction, and brains were rapidly frozen and cryosectioned to […], thawed on ice, and then incubated with 100 μM monochlorobimane for 10 min. Fluorescence intensities were examined using a quantitative fluorescence imaging system comparing side-by-side slices from control group and treatment group animals. In these experiments, 10 slices were examined per animal. […] After treatment with 8 mg sulfasalazine 2 times per day, glutathione levels decreased approximately 30% (from 100+/−5.6 to 71.7+/−7.5 fluorescence units; p 0.01; t test) in tumors as compared with control animals (receiving saline alone). In parallel studies, the same assay was used on cultured glioma cells to validate these readouts. A 30% decrease in glutathione levels correlates with the glutathione depletion achieved with 70 μM sulfasalazine administered for 24 h to cultured cells; the maximal decrease achieved with 250 μM sulfasalazine in cultured U87-MG cells was 68% (data not shown).

glioma cells [5] = assay: cell cycle: total DNA content by flow cytometry (propidium iodide); format: cell-based, human; details: 0.5 mM (FIG. 4D)
Procedure: To test whether inhibition of cystine uptake affects a specific stage of the cell cycle, changes in total DNA content were measured using flow cytometry following treatment with 0.5 mM (S)-4-CPG and 0.5 mM sulfasalazine. Cells were fixed with para-formaldehyde and stained with the nuclear marker propidium iodide after incubation with drugs.

[6] = test system: primary astrocyte cultures; assay: growth of primary astrocyte cultures; format: cell-based; details: (S)-4-CPG 0.25 mM and 0.5 mM (FIG. 3C); sulfasalazine data not shown
U87-MG = assay: intracranial U87-MG luciferase xenograft, bioluminescence imaging; format: in vivo, CB-17 nude mice; details: 8 mg twice daily for 3 weeks, then 1 dose per day (FIG. 7B)
Procedure: These U87-MG cells were similarly implanted intracranially as described above, but this time into CB-17 nude mice. After 7 days, animals were randomized into […]. The control group received an intraperitoneal injection of 1 ml dose of saline twice daily. The two test groups received an 8 mg dose of sulfasalazine (in 1 ml saline) twice daily for 3 weeks, followed by 1 dose per day of 8 mg sulfasalazine thereafter. Animals were imaged for tumor size, typically once per week, using a bioluminescence imaging system (IVIS system; Xenogen). Light emission from the tumor regions (in relative photons/second) were quantified using Living Image, version 2.20.1, software provided by Xenogen and plotted as a function of time.

[7] = test system: glioma cell lines (D-54MG, U-87MG, U-251MG and STTG1) and a primary glioma culture (GBM62); assay: growth curves of glioma cells over 5 days; format: cell-based, human; details: 5 days; 0.1 and 0.25 mM (S)-4-CPG, 0.25 and 0.5 mM sulfasalazine; all glioma cell lines and GBM62 (FIGS. 3A, 3B)
Procedure: To examine whether the depletion of glutathione via inhibition of cystine uptake by system Xc affects the growth of glioma cells, growth curves for 4 glioma cell lines (D-54MG, U-87MG, U-251MG and STTG1) and a primary glioma culture (GBM62) were established.
In the presence of 0.25 mM (S)-4-CPG, growth of D-54MG cells indeed recovered by the addition of fourfold excess of cystine (FIG. 3E), but not with glutamate (FIG. 3D), the second substrate for system Xc.

## O=C(O)c1cc(/N=N/c2ccc(S(=O)(=O)Nc3ccccn3)cc2)ccc1O [sulfasalazine]
Glioma xenograft tumors
  tumor size versus control group, H&E staining: significantly smaller
D54-MG glioma cells; 8 mg intraperitoneal twice daily for either 1 or 3 weeks, from day 7 (FIG. 7A)
  tumor expansion (relative bioluminescence): significantly reduced
D54-MG glioma cells; retreated at day 53 for 3 days after termination of treatment (FIG. 7A)
  tumor growth after retreatment: again reduced after retreatment
Glioma cells [1]
  cells died: 90%
[2]
  survival/growth of cortical neuronal cultures: Neither (S)-4-CPG (FIG. 3C) nor sulfasalazine (data not shown) affected
caspase-3
  activated form of caspase-3: increased the activated form of caspase-3
Cortical astrocytes [3]
  inhibition of cystine uptake in cortical astrocytes: to a significantly lesser degree; also recorded: only a limited inhibition
Cortical astrocytes [4]
  intracellular glutathione concentration in astrocytes: a smaller effect
Cultured glioma cells; 70 μM for 24 h
  decrease in glutathione levels in cultured cells: 30%
Cultured glioma cells; 250 μM, cultured U87-MG cells, data not shown
  maximal decrease in glutathione levels: 68%
Glioma cells [5]
  cell cycle distribution (total DNA content): a reduction of cells in G2 phase and an increase in cells in S phase
[6]
  growth of primary astrocyte cultures: Neither (S)-4-CPG (FIG. 3C) nor sulfasalazine (data not shown) affected
U87-MG
  tumor growth by bioluminescence imaging: reduce tumor growth significantly
[7]
  growth of glioma cells: dose-dependent growth inhibitions
